Data taken from patent US6429202B1, “Phospholipid complexes of proanthocyanidin A2 as antiatherosclerotic agents” (Indena S.p.A., priority 1998, dated 2002).

Tested on: atherosclerotic lesions on thoracic and abdominal aorta
Assay: Atherosclerotic lesions in rabbits fed a hypercholesterolemic diet
Assay type: in vivo, New Zealand rabbits
Settings: hypercholesterolemic diet (0.2% w/w cholesterol), substance in diet, 8 week-treatment, aorta stained with Sudan IV
Excerpt: The complexes of the invention dose-dependently prevent or reduce the formation of, atherosclerotic plaques. The activity was evidenced in rabbits fed with a hypercholesterolemic diet so as to induce atherosclerotic lesions similar to the human ones at the vasal level, particularly at the aortal arch, ventral aorta, carotids and cerebral vessels. In said model, the above mentioned phospholipid complexes change the macro- and microscopical vascular condition reducing, compared with untreated animals, both the number and the severity of the atheromatous plagues, with surprising vascular-tissutal benefit.
32 New Zealand rabbits were divided in 4 groups of 8 animals each, and treated as follows:
Group 1): Control, normal diet
Group 2): Hypercholesterolemic diet (0.2% w/w cholesterol)
Group 3): Hypercholesterolemic diet+phospholipid complex of proanthocyanidin A2 extract (0.2% cholesterol+2% w/w complex of Example 1).
Group 4): Hypercholesterolemic diet+proanthocyanidin A2 extract (0.2% cholesterol+amount of proanthocyanidin A2 equivalent to that present in 2% w/w of the complex of Example 1). After 8 week-treatment, during which cholesterol, LDL/VLDL, HDL and triglycerids levels were measured, the animals were killed.
The number, size and distribution of the atherosclerotic lesions on thoracic and abdominal aorta were evaluated. […]

Structure (SMILES): Oc1cc(O)c2c(c1)O[C@@]1(c3ccc(O)c(O)c3)Oc3cc(O)c4c(c3C2[C@H]1O)OC(c1ccc(O)c(O)c1)[C@H](O)C4 (stereo partly shown) [proanthocyanidin A2]
- area percent of the lesion: 30%
